Assay results reported in ChEMBL document CHEMBL1201862, “PubChem BioAssay data set” (2004).
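Assay format: 96-well plates, 48-hour exposure. GI50 marks 50% less growth.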 Active and inactive are the calls of the source. Cut-off read from the data, not from the text of the source: active = GI50 up to about 1.1 µM and inactive = higher.

How the values were obtained:
Assay in all cases: NCI anticancer screen, dose series, 48 h
DLD-1 = tested on: DLD-1
DMS-114 = tested on: DMS-114
HOP-18 = tested on: HOP-18
KM-20L2 = tested on: KM-20L2
M19-MEL = tested on: M19-MEL
RXF 631 = tested on: RXF 631
SNB-78 = tested on: SNB-78
XF498 = tested on: XF498

Measured: GI50

c1ccc(N2CCN(CCCN3CCc4c([nH]c5ccccc45)C3c3cccnc3)CC2)cc1 (centres undefined)
inactive: DLD-1 72.8 µM | DMS-114 > 100 µM | HOP-18 > 100 µM | KM-20L2 39.4 µM | M19-MEL > 92 µM | RXF 631 > 55.7 µM | SNB-78 > 100 µM | XF498 5.04 µM

CN(C)c1ccc(C=C2C(=O)OC(C)(C)OC2=O)cc1Br
inactive: DLD-1 > 100 µM | DMS-114 > 100 µM | HOP-18 > 100 µM | KM-20L2 > 100 µM | M19-MEL > 100 µM | RXF 631 > 100 µM | SNB-78 > 10 µM | XF498 > 100 µM

O=C1Cc2ccccc2N1c1c(Cl)cccc1Cl
inactive: DLD-1 47.9 µM | DMS-114 29.1 µM | HOP-18 > 100 µM | KM-20L2 30.2 µM | M19-MEL 40.6 µM | RXF 631 > 100 µM | SNB-78 74.5 µM | XF498 21.6 µM

CC(=O)OCc1nnn2c1C(OC(C)=O)CC2 (centres undefined)
inactive: DLD-1 > 100 µM | DMS-114 > 100 µM | KM-20L2 > 100 µM | M19-MEL > 100 µM | RXF 631 > 100 µM | SNB-78 > 100 µM | XF498 > 100 µM

COC(=O)CCC(=O)CC(=O)C1=NS(=O)(=O)c2nc(S(N)(=O)=O)c(Cl)cc2N1
inactive: DLD-1 > 100 µM | DMS-114 > 100 µM | HOP-18 > 100 µM | KM-20L2 72.9 µM | M19-MEL > 100 µM | RXF 631 > 100 µM | XF498 > 100 µM

CCC1N2CCCCC2[C@@H]2c3[nH]c4ccccc4c3CCN12 (some centres undefined)
inactive: DLD-1 > 100 µM | DMS-114 > 100 µM | HOP-18 > 100 µM | KM-20L2 > 100 µM | M19-MEL > 100 µM | RXF 631 > 100 µM | SNB-78 > 100 µM | XF498 > 100 µM

CCOc1cccc2[s+]snc12
inactive: DLD-1 43.9 µM | HOP-18 77.8 µM | KM-20L2 > 100 µM | M19-MEL 56 µM | RXF 631 > 100 µM | SNB-78 49.3 µM | XF498 25.2 µM

S=P1(Oc2ccccc2)NNP2(=NP(N3CC3)(N3CC3)=NP(N3CC3)(N3CC3)=N2)NN1 (centres undefined)
inactive: DLD-1 > 100 µM | DMS-114 > 100 µM | HOP-18 > 100 µM | M19-MEL > 100 µM | RXF 631 > 100 µM | XF498 > 100 µM
